These results are taken from US8299037B2, “Feed or pharmaceutical composition comprising apramycin or an adequate salt thereof” (Poulpharm B.V.B.A., priority 2007, dated 2012).

The test system of test [1] is Histomonas meleagridis. As to conditions: turkeys; cited from earlier work.
The test system of test [2] is Histomonas meleagridis. The test is described as follows: Prophylaxis of histomoniasis in turkey poults inoculated intracloacally, apramycin in feed (Example 1). It counts as in vivo, turkeys. From the text:
The objective of the study was to investigate the activity of apramycin as prophylactic agent against a Histomonas meleagridis strain isolated from an outbreak of histomoniasis in turkeys in Belgium (September 2005). The antibiotic (apramycin) was supplemented through the feed at 550 g of the test product/MT of feed (Ap 550) in the challenged birds. This medicated group was compared with an Infected Untreated Control (IUC) and an Uninfected Untreated Control group (UUC).
Seventy five (75) one day old male animals (turkey poults) were enrolled in the study and randomly allocated to 3 groups of 25 animals per pen. During the whole study (from day 1 to day 38), Treatment 1 (UUC) and 2 (IUC) received standard animal (turkey) feed without supplementation, whereas Treatment 3, received feed supplemented with apramycin sulphate. On day 22, Treatments 2 and 3 were inoculated intracloacally with Histomonas meleagridis. From that day one, the animals were clinically observed on a daily base. At the end of the study, D38, all remaining animals were euthanized and necropsied and lesion scored for caeca and liver.
All animals (turkeys) died during the challenge period were necropsied to determine the cause of death. […] (see Table 1 and FIG. 1).

The test system of test [3] is Histomonas meleagridis. The test is described as above. The format is in vivo. To be noted: live weight at the end of the study; 550 g/MT of feed, turkeys.
Test [4] relates to Histomonas meleagridis. To be noted: cited from earlier work.
The mark [5] stands for this setting: necropsy, 550 g/MT of feed, turkeys.
The mark [6] stands for this setting: 300 ppm, inoculated broiler chickens.

The structures appear in SMILES notation. “Also recorded” adds a separate entry of the source.

For the molecule `CN[C@@H]1[C@@H](O[C@H]2O[C@H](CO)[C@@H](N)[C@H](O)[C@H]2O)OC2C[C@@H](N)[C@@H](O[C@H]3[C@H](O)[C@@H](O)[C@H](N)C[C@@H]3N)OC2[C@@H]1O` (stereo partly drawn) [Ap 550, Apramycin], the “Treatment effect on histomoniasis (in words)” value in the test on Histomonas meleagridis [1] was “No significant treatment effect”. In addition, the “Mortality due to histomoniasis (% Cumulative)” value in the test with Histomonas meleagridis [2] (D 7 PI, 550 g/MT of feed, turkeys) came to 0.00%; with Histomonas meleagridis [2] (D 8 PI, 550 g/MT of feed, turkeys), 0.00%; in the test on Histomonas meleagridis [2] (D 9 PI, 550 g/MT of feed, turkeys), 0.00%; in the test with Histomonas meleagridis [2] (D 10 PI, 550 g/MT of feed, turkeys) it was 0.00%; with Histomonas meleagridis [2] (D11 PI, 550 g/MT of feed, turkeys) it was 0.00%; in the test with Histomonas meleagridis [2] (D 12 PI, 550 g/MT of feed, turkeys), 0.00%. Moreover, the “Mortality due to histomoniasis (% Cumulative)” value with Histomonas meleagridis [2] (D 13 PI, 550 g/MT of feed, turkeys) worked out at 0.00%; in the test with Histomonas meleagridis [2] (D 14 PI, 550 g/MT of feed, turkeys), 0.00%; in the test with Histomonas meleagridis [2] (D 15 PI, 550 g/MT of feed, turkeys), 0.00%; with Histomonas meleagridis [2] (D 16 PI, 550 g/MT of feed, turkeys) it was 0.00%. For the same molecule, the “Mortality during the challenge period (in words)” value in the test on Histomonas meleagridis [2] (inoculated turkeys, apramycin continuously in the feed) is “significant effect in reducing the mortality; also recorded: not a single animal died”. Besides, the “Mean lesion score at necropsy, Caecum score” value in the test with Histomonas meleagridis [2] (setting [5]) is listed as 0.45. In addition, in the test on Histomonas meleagridis [2] (setting [5]), the “Mean lesion score at necropsy, Liver score” value was found to be 0.00. For the same molecule, the “Protection against the infection by Histomonas meleagridis (in words)” value in the test with Histomonas meleagridis [2] (turkeys, 550 g/MT of feed) is reported as “does provide active protection”. In addition, the “Liver and caecal lesion scores (in words)” value with Histomonas meleagridis [2] (turkeys, apramycin continuously in the feed) is given as “reduced significantly”. In addition, the “Average Weight at D40” value in the test with Histomonas meleagridis [3] turned out to be 1.40 kg. In addition, the “In-vivo use against histomoniasis (in words)” value in the test with Histomonas meleagridis [4] (300 ppm in broilers) is listed as “ineffective”. Moreover, the “Weight gain (in words)” value with Histomonas meleagridis [4] (300 ppm in broilers) was “no amelioration”. In addition, in the test with Histomonas meleagridis [4] (setting [6]), the “Caecal histomoniasis lesions (in words)” value is listed as “No amelioration”. The “Liver lesions / liver lesion scores (in words)” value with Histomonas meleagridis [4] (setting [6]) is “some reduction”.
